Measurements: patent US20020091273A1, “Method for the regioselective preparation of substituted benzo[g]quinoline3-carbonitriles and benzo[g]quinazolines” (American Home Products Corporation, priority 2000, published 2002)
Structures can show the parent of a compound that is named as a salt.

First: COc1cc(CCC#N)c(Br)cc1OCc1ccccc1 [Example 2, 3-(4-Benzyloxy-2-bromo-5-methoxyphenyl)-propionitrile]
Second: COc1cc(CBr)c(Br)cc1OCc1ccccc1 [Example 1, 5-(Benzyloxy)-1-bromo-2-(bromomethyl)-4-methoxybenzene]
The melting point of the first is lower: 52 to 53 °C for the first, 103 to 105 °C for the second.

First: COc1cc(Nc2c(C#N)cnc3cc4cc(OCCCN5CCOCC5)c(OC)cc4cc23)c(Cl)cc1Cl [Example 25, 4-(2,4-Dichloro-5-methoxyphenylamino)-7-methoxy-8-(3-morpholin-4-yl-propoxy)benzo[g]quinoline-3-carbonitrile]
Second: COc1cc(Nc2c(C#N)cnc3cc4cc(OCCCCl)c(OC)cc4cc23)c(Cl)cc1Cl [Example 24, 8-(3-Chloropropoxy)-4-(2,4-dichloro-5-methoxyphenylamino)-7-methoxybenzo[g]quinoline-3-carbonitrile]
The melting point of the first is lower: 205 to 208 °C for the first, 220 to 223 °C for the second.

First: COc1cc2cc(C(=O)OC(C)(C)C)c(N)cc2cc1OCc1ccccc1 [Example 7, 3-Amino-6-benzyloxy-7-methoxynaphthalene-2-carboxylic acid tert-butyl ester]
Second: COc1cc2cc(C#N)c(N)cc2cc1OCc1ccccc1 [Example 29, 3-Amino-6-benzyloxy-7-methoxynaphthalene-2-carbonitrile]
The melting point of the first is lower: 179 to 180 °C for the first, 241 to 243 °C for the second.

First: COc1cc(Nc2ncnc3cc4cc(OCCN5CCOCC5)c(OC)cc4cc23)c(Cl)cc1Cl (as salt: hydrochloride) [Example 33, (2,4-Dichloro-5-methoxyphenyl)-[7-methoxy-8-(2-morpholin-4-yl-ethoxy)benzo[g]-quinazolin-4-yl]-amine]
Second: COc1cc2cc3c(Nc4ccc(Br)cc4F)ncnc3cc2cc1OCCN1CCOCC1 (as salt: hydrochloride) [Example 32, (4-Bromo-2-fluorophenyl)-[7-methoxy-8-(2-morpholin-4-yl-ethoxy)benzo[g]quinazolin4-yl]-amine]
The melting point of the first is higher: 258 to 260 °C for the first, 210 to 225 °C for the second.

Compared with `COc1cc2cc3c(Nc4ccc(Sc5nccn5C)c(Cl)c4)c(C#N)cnc3cc2cc1OCCn1ccnn1` [Example 22, 4-[3-Chloro-4-(1-methyl-1H-imidazol-2-ylsulfanyl)phenylamino]-7-methoxy-8-(2-[1,2,3]triazol-1-yl-ethoxy)benzo[g]quinoline-3-carbonitrile], `COc1cc(Nc2ncnc3cc4cc(OCc5ccccc5)c(OC)cc4cc23)c(Cl)cc1Cl` [Example 30, (8-Benzyloxy-7-methoxybenzo[g]quinazolin-4-yl)-(2,4-dichloro-5-methoxyphenyl)amine] is higher in melting point: 201 to 207 °C for the first, 275 to 280 °C for the second.

First: COc1cc2c(cc1OCc1ccccc1)C(C#N)(Sc1ccc(Cl)cc1)C2 (centres unmarked) [Example 4, 4-Benzyloxy-7-(4-chloro-phenylsulfanyl)-3-methoxybicyclo [4.2.0]octa-1,3,5-triene-7-carbonitrile]
Second: COc1cc2c(cc1OCc1ccccc1)C(C#N)(Sc1ccccc1)C2 (centres unmarked) [Example 5, 4-Benzyloxy-3-methoxy-7-phenylsulfanylbicyclo [4.2.0]octa-1,3,5-triene-7-carbonitrile]
The melting point of the first is higher: 114 to 115 °C for the first, 109 to 110 °C for the second.

First: COc1cc2cc3c(=O)[nH]cnc3cc2cc1OCCN1CCOCC1 [Example 11, 7-Methoxy-8-(2-morpholin4-yl-ethoxy)-3H-benzo[g]quinazolin-4-one]
Second: COc1cc2cc3c(Cl)ncnc3cc2cc1OCCN1CCOCC1 [Example 31, 4-Chloro-7-methoxy-8-(2-morpholin-4-yl-ethoxy)benzo[g]quinazoline]
The melting point of the first is higher: 230 to 232 °C for the first, 166 to 168 °C for the second.

Compared with `COc1cc2cc(C(=O)OC(C)(C)C)c(N)cc2cc1O` [Example 9, 3-Amino-6-hydroxy-7-methoxy-naphthalene-2-carboxylic acid tert-butyl ester], `COc1cc2cc(C(=O)OC(C)(C)C)c(N)cc2cc1OCCN1CCOCC1` [Example 10, 3-Amino-7-methoxy-6-(2-morpholin-4-yl-ethoxy)-naphthalene-2-carboxylic acid tert-butyl ester] is lower in melting point: 262 to 263 °C for the first, 125 to 127 °C for the second.

In the case of `COc1cc2c(cc1OCc1ccccc1)C(C#N)C2` (centres unmarked) [Example 3, 4-Benzyloxy-3-methoxybicyclo[4.2.0]octa-1,3,5-triene-7-carbonitrile], the melting point is reported as 85 °C.

Compound `COc1cc2cc3c(Cl)c(C#N)cnc3cc2cc1O` [Example 14, 4-Chloro-8-hydroxy-7-methoxybenzo[g]quinoline-3-carbonitrile] has a melting point greater than 300 °C.
In the case of `COc1cc2cc3c(=O)c(C#N)c[nH]c3cc2cc1O` [Example 13, 8-Hydroxy-7-methoxy-4-oxo-1,4-dihydrobenzo[g]quinoline-3-carbonitrile], the melting point is reported as greater than 300 °C.
Work on `COc1cc2cc3c(=O)c(C#N)c[nH]c3cc2cc1OCc1ccccc1` [Example 8, 8-Benzyloxy-7-methoxy-4-oxo-1,4-dihydrobenzo[g]quinoline-3-carbonitrile] yielded a melting point greater than 300 °C.
`COc1cc2cc3c(Nc4ccc(Sc5nccn5C)c(Cl)c4)c(C#N)cnc3cc2cc1O` [Example 15, 4-[3-Chloro-4-(1-methyl-1 H-imidazol-2-ylsulfanyl)phenylamino]-8-hydroxy-7-methoxybenzo[g]quinoline-3-carbonitrile] showed a melting point greater than 300 °C.
Work on `COc1cc2cc3c(Nc4ccc(Sc5nccn5C)c(Cl)c4)c(C#N)cnc3cc2cc1OCCN1CCOCC1` [Example 17, 4-[3-Chloro-4-(1-methyl-1H-imidazol-2-ylsulfanyl)phenylamino]-7-methoxy-8-(2-morpholin-4-yl-ethoxy)benzo[g]quinoline-3-carbonitrile] yielded a melting point greater than 300 °C.
For `COc1cc2cc3c(=O)c(C#N)c[nH]c3cc2cc1OCCN1CCOCC1` [Example 12, 7-Methoxy-8-(2-morpholin-4-yl-ethoxy)-4-oxo-1,4-dihydrobenzo[g]quinoline-3-carbonitrile], the melting point was 275 °C (dec.).
